The text below walks through data of paper PMC4685510, “A Cell Biologist’s Field Guide to Aurora Kinase Inhibitors” (Frontiers in Oncology, 2015).

Holding throughout (experiment): biochemical
Type in all cases: biochemical

Experiment [1] addresses 363 human kinases (including Aurora A/B/C) (Homo sapiens, UniProt P14616). The note with it: IRR/INSRR; for remaining activity at 0.5 µM / remaining activity at 0.1 µM: read-out: % Enzyme Activity (relative to DMSO controls); for remaining activity at 0.1 µM: 100 nM.
Source text: (§1) However, the Aurora A/B selectivity ratios derived from our in vitro and in vivo data can be compared to prioritize inhibitors.
For experiment [2], the target named is T1, 363 human kinases (including Aurora A/B/C) (Homo sapiens, UniProt P54753).
T1 sequence (P54753 34-998): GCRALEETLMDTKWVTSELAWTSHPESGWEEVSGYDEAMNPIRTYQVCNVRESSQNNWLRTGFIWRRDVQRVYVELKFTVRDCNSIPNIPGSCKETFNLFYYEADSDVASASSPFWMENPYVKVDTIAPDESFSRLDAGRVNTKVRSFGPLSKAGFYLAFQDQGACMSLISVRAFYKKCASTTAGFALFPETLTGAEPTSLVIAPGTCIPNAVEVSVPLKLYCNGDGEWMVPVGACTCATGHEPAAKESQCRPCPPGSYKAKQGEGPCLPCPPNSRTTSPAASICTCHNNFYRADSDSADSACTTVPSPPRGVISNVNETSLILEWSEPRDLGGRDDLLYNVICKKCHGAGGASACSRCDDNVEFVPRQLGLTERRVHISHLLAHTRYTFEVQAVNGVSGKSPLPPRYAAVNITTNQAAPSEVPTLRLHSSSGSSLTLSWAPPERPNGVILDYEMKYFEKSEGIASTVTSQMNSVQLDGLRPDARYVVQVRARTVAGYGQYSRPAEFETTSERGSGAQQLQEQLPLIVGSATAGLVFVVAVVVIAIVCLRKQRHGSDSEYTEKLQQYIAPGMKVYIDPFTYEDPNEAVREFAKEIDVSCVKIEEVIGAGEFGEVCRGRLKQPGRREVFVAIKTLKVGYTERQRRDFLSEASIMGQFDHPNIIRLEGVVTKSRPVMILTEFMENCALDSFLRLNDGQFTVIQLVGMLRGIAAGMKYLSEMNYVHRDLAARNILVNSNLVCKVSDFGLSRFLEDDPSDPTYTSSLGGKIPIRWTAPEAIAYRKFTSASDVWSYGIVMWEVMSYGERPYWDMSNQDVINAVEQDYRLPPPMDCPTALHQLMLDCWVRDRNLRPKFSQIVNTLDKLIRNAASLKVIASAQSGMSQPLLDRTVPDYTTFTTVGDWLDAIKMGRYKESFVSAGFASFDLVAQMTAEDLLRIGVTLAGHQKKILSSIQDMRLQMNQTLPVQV
To be noted: EPHB3, [ATP] 50 µM; for remaining activity at 0.5 µM / remaining activity at 0.1 µM: read-out: % Enzyme Activity (relative to DMSO controls); for remaining activity at 0.1 µM: 100 nM.
Source text: as §1

For experiment [3], the target named is T2, 363 human kinases (including Aurora A/B/C) (Homo sapiens, UniProt Q96KB5).
T2 sequence (Q96KB5 1-322): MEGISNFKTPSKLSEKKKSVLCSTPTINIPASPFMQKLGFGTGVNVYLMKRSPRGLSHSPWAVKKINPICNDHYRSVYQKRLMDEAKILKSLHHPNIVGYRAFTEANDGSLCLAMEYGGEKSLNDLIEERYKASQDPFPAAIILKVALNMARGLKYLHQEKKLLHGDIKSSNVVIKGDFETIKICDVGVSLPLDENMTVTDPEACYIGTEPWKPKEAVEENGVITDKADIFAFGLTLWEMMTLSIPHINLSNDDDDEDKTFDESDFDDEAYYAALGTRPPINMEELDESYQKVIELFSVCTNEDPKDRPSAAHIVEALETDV
To be noted: PBK/TOPK; for remaining activity at 0.5 µM / remaining activity at 0.1 µM: read-out: % Enzyme Activity (relative to DMSO controls); for remaining activity at 0.1 µM: 100 nM.
Source text: as §1

Experiment [4] concerns the target T3, 363 human kinases (including Aurora A/B/C) (Homo sapiens, UniProt Q9UKI8).
T3 sequence (Q9UKI8 1-766): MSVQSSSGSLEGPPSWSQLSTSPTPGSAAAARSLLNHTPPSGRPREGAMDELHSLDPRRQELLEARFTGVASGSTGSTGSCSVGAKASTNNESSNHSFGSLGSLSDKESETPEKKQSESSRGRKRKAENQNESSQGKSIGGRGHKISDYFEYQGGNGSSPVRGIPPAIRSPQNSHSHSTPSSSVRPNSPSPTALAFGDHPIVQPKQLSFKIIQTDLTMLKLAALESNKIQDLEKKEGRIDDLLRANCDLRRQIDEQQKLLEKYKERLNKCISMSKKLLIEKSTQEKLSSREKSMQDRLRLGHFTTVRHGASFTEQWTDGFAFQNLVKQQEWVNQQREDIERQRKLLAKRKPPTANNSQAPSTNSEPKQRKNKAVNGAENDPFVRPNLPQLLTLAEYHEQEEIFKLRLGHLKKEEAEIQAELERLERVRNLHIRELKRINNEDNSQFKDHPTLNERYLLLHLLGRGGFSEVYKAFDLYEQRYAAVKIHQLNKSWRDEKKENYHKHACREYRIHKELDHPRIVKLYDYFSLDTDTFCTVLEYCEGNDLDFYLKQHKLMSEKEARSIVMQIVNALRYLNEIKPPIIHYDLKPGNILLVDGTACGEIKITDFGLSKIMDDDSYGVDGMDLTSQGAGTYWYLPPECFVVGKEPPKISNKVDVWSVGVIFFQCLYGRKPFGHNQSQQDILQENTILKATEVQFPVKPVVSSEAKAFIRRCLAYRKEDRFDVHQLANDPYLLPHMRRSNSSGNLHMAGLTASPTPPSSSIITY
To be noted: TLK1; for remaining activity at 0.5 µM / remaining activity at 0.1 µM: read-out: % Enzyme Activity (relative to DMSO controls); for remaining activity at 0.1 µM: 100 nM.
Source text: as §1

In experiment [5] the target is 363 human kinases (including Aurora A/B/C) (Homo sapiens, UniProt Q9HAZ1). To be noted: CLK4, [ATP] 100 µM; for remaining activity at 0.5 µM / remaining activity at 0.1 µM: read-out: % Enzyme Activity (relative to DMSO controls); for remaining activity at 0.1 µM: 100 nM.
Source text: as §1
Experiment [6] deals with 363 human kinases (including Aurora A/B/C) (Homo sapiens, UniProt Q8IY84). The note with it: NIM1; for remaining activity at 0.5 µM / remaining activity at 0.1 µM: read-out: % Enzyme Activity (relative to DMSO controls); for remaining activity at 0.1 µM: 100 nM.
Source text: as §1
In experiment [7] the target is 363 human kinases (including Aurora A/B/C) (Homo sapiens, UniProt Q9NY57). To be noted: STK32B/YANK2; for remaining activity at 0.5 µM / remaining activity at 0.1 µM: read-out: % Enzyme Activity (relative to DMSO controls); for remaining activity at 0.1 µM: 100 nM.
Source text: as §1
In experiment [8] the target is 363 human kinases (including Aurora A/B/C) (Homo sapiens, UniProt P21802). To be noted: FGFR2, [ATP] 5 µM; for remaining activity at 0.5 µM / remaining activity at 0.1 µM: read-out: % Enzyme Activity (relative to DMSO controls); for remaining activity at 0.1 µM: 100 nM.
Source text: as §1
Experiment [9] deals with 363 human kinases (including Aurora A/B/C) (Homo sapiens, UniProt Q9BYP7). To be noted: WNK3; for remaining activity at 0.5 µM / remaining activity at 0.1 µM: read-out: % Enzyme Activity (relative to DMSO controls); for remaining activity at 0.1 µM: 100 nM.
Source text: as §1
Experiment [10] addresses 363 human kinases (including Aurora A/B/C) (Homo sapiens, UniProt P43405). To be noted: SYK; for remaining activity at 0.5 µM / remaining activity at 0.1 µM: read-out: % Enzyme Activity (relative to DMSO controls); for remaining activity at 0.1 µM: 100 nM.
Source text: as §1

363 human kinases (including Aurora A/B/C) (Homo sapiens, UniProt Q8IY84), sequence (Q8IY84 whole entry): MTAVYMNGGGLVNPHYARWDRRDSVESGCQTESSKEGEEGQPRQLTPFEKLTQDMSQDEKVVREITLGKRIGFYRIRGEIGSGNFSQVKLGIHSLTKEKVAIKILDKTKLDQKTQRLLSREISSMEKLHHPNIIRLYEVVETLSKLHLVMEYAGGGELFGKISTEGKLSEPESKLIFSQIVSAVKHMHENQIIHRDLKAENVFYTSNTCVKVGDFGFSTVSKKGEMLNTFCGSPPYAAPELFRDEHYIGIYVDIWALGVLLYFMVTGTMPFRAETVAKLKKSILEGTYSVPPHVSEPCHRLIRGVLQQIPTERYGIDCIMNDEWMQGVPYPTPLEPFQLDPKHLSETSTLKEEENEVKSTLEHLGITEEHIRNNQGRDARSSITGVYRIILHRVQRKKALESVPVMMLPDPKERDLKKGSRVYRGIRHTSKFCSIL
363 human kinases (including Aurora A/B/C) (Homo sapiens, UniProt Q9BYP7), sequence (Q9BYP7 whole entry): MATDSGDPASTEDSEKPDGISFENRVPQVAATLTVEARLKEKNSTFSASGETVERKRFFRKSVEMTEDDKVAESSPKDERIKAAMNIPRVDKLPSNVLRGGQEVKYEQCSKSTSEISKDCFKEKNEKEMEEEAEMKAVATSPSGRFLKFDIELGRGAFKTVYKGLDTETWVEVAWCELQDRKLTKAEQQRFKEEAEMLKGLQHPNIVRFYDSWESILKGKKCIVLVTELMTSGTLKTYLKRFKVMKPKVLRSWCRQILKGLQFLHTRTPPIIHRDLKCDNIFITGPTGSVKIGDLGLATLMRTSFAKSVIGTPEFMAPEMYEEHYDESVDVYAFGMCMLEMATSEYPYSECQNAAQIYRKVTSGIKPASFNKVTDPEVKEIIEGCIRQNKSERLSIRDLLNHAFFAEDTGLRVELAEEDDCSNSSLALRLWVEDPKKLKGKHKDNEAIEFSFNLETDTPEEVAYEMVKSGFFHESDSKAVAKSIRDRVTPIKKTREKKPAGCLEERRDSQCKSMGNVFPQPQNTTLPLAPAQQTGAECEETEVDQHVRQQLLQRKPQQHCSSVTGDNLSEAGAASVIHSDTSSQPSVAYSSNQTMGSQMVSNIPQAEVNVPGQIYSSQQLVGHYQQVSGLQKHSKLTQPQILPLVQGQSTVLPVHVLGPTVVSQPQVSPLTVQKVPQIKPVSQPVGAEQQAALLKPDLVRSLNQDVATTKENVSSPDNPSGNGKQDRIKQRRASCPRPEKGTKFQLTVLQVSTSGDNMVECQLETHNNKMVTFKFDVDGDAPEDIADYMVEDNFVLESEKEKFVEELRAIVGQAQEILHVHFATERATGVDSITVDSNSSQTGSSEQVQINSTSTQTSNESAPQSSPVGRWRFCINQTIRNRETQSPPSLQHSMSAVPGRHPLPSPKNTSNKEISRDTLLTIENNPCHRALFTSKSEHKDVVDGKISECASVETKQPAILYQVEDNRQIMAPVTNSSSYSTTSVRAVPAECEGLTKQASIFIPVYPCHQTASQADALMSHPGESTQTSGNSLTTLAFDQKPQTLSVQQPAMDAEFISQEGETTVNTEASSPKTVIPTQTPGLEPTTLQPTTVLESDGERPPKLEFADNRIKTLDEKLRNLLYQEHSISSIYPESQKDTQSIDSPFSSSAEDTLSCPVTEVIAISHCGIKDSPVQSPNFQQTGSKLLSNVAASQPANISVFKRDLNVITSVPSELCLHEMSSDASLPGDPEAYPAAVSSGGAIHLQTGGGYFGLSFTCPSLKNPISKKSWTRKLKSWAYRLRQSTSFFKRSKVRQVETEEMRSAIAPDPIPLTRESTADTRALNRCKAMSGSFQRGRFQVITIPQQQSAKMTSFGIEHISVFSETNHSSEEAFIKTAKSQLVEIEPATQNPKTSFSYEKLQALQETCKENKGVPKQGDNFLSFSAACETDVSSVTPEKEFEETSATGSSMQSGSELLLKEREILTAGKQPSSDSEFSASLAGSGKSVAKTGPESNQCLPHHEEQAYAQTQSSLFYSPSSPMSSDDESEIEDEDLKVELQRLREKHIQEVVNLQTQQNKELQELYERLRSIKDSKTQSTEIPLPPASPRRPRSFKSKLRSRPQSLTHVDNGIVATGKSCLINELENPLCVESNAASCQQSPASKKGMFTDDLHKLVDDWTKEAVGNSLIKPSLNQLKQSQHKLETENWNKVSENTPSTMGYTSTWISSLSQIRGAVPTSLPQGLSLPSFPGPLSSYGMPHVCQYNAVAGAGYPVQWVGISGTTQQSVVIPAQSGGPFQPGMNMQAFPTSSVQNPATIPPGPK
363 human kinases (including Aurora A/B/C) (Homo sapiens, UniProt Q9NY57), sequence (Q9NY57 whole entry): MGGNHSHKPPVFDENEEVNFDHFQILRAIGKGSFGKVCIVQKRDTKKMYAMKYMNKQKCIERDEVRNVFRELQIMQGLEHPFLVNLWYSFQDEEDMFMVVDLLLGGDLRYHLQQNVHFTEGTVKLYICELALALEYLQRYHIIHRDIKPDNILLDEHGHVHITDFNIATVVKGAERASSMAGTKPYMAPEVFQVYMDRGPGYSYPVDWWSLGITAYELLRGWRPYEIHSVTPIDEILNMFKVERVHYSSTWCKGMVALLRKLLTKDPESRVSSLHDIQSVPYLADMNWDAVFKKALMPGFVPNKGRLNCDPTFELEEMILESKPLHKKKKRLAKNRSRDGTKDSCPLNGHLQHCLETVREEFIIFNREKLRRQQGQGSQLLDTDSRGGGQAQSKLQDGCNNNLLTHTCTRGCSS
363 human kinases (including Aurora A/B/C) (Homo sapiens, UniProt Q9HAZ1), sequence (Q9HAZ1 whole entry): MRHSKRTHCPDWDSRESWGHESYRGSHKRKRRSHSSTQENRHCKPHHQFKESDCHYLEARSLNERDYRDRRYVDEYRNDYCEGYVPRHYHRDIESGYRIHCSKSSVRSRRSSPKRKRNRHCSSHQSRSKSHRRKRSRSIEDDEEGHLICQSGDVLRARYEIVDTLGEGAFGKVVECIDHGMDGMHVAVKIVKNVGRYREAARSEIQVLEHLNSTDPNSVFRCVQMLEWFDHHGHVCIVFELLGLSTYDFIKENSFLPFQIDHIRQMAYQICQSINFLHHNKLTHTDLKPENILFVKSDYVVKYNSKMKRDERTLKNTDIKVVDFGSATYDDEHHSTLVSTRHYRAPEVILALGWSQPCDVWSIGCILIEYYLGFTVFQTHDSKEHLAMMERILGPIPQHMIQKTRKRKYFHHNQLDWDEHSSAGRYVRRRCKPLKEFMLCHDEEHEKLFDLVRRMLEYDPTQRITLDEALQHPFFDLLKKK
363 human kinases (including Aurora A/B/C) (Homo sapiens, UniProt P14616), sequence (P14616 27-1297): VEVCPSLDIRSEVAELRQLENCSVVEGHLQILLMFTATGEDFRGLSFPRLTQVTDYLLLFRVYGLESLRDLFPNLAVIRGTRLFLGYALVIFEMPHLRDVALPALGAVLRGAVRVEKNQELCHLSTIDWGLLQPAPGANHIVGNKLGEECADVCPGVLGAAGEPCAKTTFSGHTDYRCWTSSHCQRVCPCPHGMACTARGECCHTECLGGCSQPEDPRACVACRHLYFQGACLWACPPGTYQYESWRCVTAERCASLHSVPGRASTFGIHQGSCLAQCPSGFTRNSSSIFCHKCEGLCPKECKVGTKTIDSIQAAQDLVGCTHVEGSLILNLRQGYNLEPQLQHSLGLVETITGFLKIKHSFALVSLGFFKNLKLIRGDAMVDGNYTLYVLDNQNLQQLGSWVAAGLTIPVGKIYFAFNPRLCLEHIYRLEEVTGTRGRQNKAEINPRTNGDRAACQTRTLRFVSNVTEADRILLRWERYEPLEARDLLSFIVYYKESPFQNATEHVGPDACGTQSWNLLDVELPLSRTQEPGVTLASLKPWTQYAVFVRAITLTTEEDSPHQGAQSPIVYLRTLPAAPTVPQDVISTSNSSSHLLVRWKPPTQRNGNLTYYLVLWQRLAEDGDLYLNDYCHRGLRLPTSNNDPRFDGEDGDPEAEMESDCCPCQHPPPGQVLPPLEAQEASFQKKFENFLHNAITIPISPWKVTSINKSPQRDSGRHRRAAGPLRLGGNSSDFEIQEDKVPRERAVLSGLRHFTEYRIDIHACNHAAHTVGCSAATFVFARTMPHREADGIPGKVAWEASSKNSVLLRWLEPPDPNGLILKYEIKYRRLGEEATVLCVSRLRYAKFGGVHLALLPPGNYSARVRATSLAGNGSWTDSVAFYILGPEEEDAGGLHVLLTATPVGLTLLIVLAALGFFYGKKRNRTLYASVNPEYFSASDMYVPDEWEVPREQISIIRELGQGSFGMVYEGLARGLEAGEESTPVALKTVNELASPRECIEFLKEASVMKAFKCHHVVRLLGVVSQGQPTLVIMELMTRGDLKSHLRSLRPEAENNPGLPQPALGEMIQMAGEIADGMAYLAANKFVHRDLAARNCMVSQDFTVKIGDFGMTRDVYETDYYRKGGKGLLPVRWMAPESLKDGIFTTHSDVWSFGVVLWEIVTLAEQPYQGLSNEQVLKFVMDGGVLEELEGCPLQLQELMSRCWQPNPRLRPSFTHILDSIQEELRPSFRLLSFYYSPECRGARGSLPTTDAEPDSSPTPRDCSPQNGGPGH

Turning to `O=C(c1cccc(Cl)c1F)N1CCN(Cc2cccc(Nc3nccs3)n2)CC1` [MK-8745], the “% Enzyme Activity (relative to DMSO controls)” value in experiment [1] (500 nM) was determined as 75.20%; in experiment [2] (500 nM), 92.59%; in experiment [3] (500 nM), 91.24%; in experiment [4] (500 nM) it was 119.91%; in experiment [5] (500 nM) it was 57.02%; in experiment [6] (500 nM) it was 97.14%. The “% Enzyme Activity (relative to DMSO controls)” value in experiment [7] (500 nM) was 95.67%; in experiment [8] (500 nM), 90.67%; in experiment [9] (500 nM), 106.70%; in [10] (500 nM), 82.70%. The remaining activity at 0.5 µM came out at 76.4% in experiment [1] (500 nM); 93% in experiment [2] (500 nM); 94.4% in experiment [3] (500 nM); 125% in experiment [4] (500 nM); 59.9% in experiment [5] (500 nM); 97.2% in experiment [6] (500 nM). For the same molecule, the remaining activity at 0.5 µM in experiment [7] (500 nM) stood at 97.9%; in experiment [8] (500 nM), 92%; in experiment [9] (500 nM) it was 108%; in experiment [10] (500 nM), 83.2%.

As for `CCn1cc(-c2ccnc3[nH]c(-c4cccc(CN(C)C)c4)cc23)c(-c2ccc(NC(=O)N(C)C)cc2)n1` [GSK1070916], the remaining activity at 0.1 µM turned out to be 99.5% in experiment [1]; 94.5% in experiment [2]; 97.5% in experiment [3]; 120% in [4]; 70.3% in experiment [5]; 94.8% in experiment [6]. Further, the remaining activity at 0.1 µM in [7] was determined as 93.6%; in [8], 43.3%; in [9], 110%; in experiment [10], 84.8%.

In the case of `O=C(O)[C@]1(Cc2cccc(Nc3nccs3)n2)CC[C@@H](Oc2cccc(Cl)c2F)CC1` [MK-5108], the remaining activity at 0.1 µM in experiment [1] stood at 81.7%; in experiment [2], 102%; in experiment [3], 93.9%; in [4] it was 95.7%; in experiment [5], 34.9%; in [6], 96.8%. Moreover, the remaining activity at 0.1 µM came to 95.8% in experiment [7], 39.7% in experiment [8], 91.9% in [9] and 93.8% in experiment [10]. The remaining activity at 0.5 µM in experiment [1] (500 nM) amounted to 46.3%; in [2] (500 nM), 89.5%; in [3] (500 nM), 95.4%; in experiment [4] (500 nM), 116%; in experiment [5] (500 nM), 6.67%; in experiment [6] (500 nM) it was 96.4%. Also, the remaining activity at 0.5 µM in experiment [7] (500 nM) was found to be 95.7%; in experiment [8] (500 nM), 11.2%; in [9] (500 nM), 63.4%; in experiment [10] (500 nM) it was 63.6%.
